This is an account of results in the NIST ThermoML archive (doi:10.1016/j.jct.2004.12.006).

Series [1] can be described thus: Molar enthalpy of transition or fusion. Particulars: Crystal; DSC.
For series [2] the following is noted: Crystal; DTA.

Numbers after ± are expanded uncertainties.

`Cl.Cl.Fc1ccc([C@@H]2CCNC[C@H]2COc2ccc3c(c2)OCO3)cc1.Fc1ccc([C@@H]2CCNC[C@H]2COc2ccc3c(c2)OCO3)cc1.O` [paroxetine hydrochloride hemihydrate]: the “Molar enthalpy of transition or fusion” value in series [1] was 8.12 ± 0.167 kcal/mol. In series [2], the Normal melting temperature came to 126.7 ± 0.7 °C.
